# Laboratory results: patent publication US10426772B2, “Use of ergot alkaloids as an anthelmintic agent” (priority 2016, dated 2019)
# Columns and labels:
# adult schistosomes = experiment: Egg laying assay, adult schistosome pairs in vitro; type: cell-based, Schistosoma mansoni
# Excerpt: (§1) Female Swiss Webster mice infected with S. mansoni cerceria (NMRI strain) were sacrificed 49 days post infection by CO2 euthanasia. Adult schistosomes were recovered by perfusion with a solution of 0.85% sodium chloride+0.75% sodium citrate and dissection of the mesenteric vasculature. Harvested schistosomes were washed in RPMI 1640 Medium with GlutaMAX+5% heat inactivated FBS (Gibco) and Penicillin-Streptomycin (final concentration 100 units/mL, ThermoFisher cat #15140122).
# For egg laying assays, adult schistosomes were transferred to 24 well plates the day after harvesting from mice (5 worm pairs in 2 mL media per well). Eggs were counted under a stereomicroscope daily, after which worms were transferred to a new well with fresh drug containing media. Egg counts were recorded for five days, and data processed as the mean number of eggs laid per worm pair/day. Measurements of egg dimensions were quantified using the “analyze>measure” function in ImageJ to record the length and width of individual eggs.
# adult S. mansoni = experiment: Movement assay of cultured adult S. mansoni (Example 2); type: cell-based; conditions: Schistosoma mansoni; FIG. 19B; read-out: EC50, stimulation of adult schistosome movement
# Excerpt: as §1
# For movement assays, worms were cultured 37° C./5% CO2 in vented 100×25 mm petri dishes (ThermoFisher cat #4031) containing 50 mL of media and used between 1-3 days after harvesting. Prior to assessing worm movement, individuals were transferred to a six well dish (4-5 individuals per well) containing 3 mL drug solution in RPMI 1640 supplemented with HEPES (25 mM) and MS (5%). Videos were recorded using a Zeiss Discovery v20 stereomicroscope and a QiCAM 12-bit cooled color CCD camera controlled by metamorph imaging software (version 7.8.1.0). 1 minute recordings were acquired at 4 frames per second, saved as a .TIFF stack, and movement was analyzed using ImageJ software as described in (PMID: 27187180, PMID: 27397763).
# Sm.5HTR [1] = target: Sm.5HTR (Schistosoma mansoni, UniProt A0A173FEI8); experiment: cell-based
# Description: HEK293 cells (ATCC CRL-1573.3) were cultured in growth media consisting of DMEM supplemented with GlutaMAX (Gibco cat #10566016)+10% heat inactivated fetal bovine serum and penicillin-streptomycin (100 units/mL, ThermoFisher). Stable cell lines for the pGloSensor-22F cAMP Plasmid (Promega) and schistosome 5HTRs in pcDNA3.1(−) were selected with hygromycin (200 μg/mL) and G418 (400 μg/mL). The correct identity of each stably expressed sequence was verified by isolating total RNA from each stable line (TRIzol Reagent, Ambion) and amplifying the sequence of interest with gene specific primers flanking the 5′ and 3′ regions of the cds (SuperScript® III One-Step RT-PCR System, Invitrogen). PCR products were ligated into a TA cloning vector (pGEM-T Easy, Promega) and sequenced.
# HEK293 lines stably expressing both the 22F cAMP sensor and Sm.5HTR were cultured in growth media supplemented with 10% dialyzed FRS. For cAMP assays in 96 well format, cells cultured in T-75 flasks were trypsinized (TrypLE Express, Gibco) and plated in solid white 96 well plates (Costar cat #3917) the day prior to assay at a density of 2.5×10^4 cells/well. The following day media was removed and replaced with assay buffer consisting of HBSS buffered with HEPES (20 mM, pH 7.4)+BSA (0.1% w/v) and D-luciferin sodium salt (1 mg/mL, Gold Biotechnology). Plates were equilibrated at room temperature for 1 hour, at which point 3-Isobutyl-1-methylxanthine (IBMX 200 μM, Sigma Aldrich) was added. Plates were equilibrated a further 30 minutes prior to test compound addition. […] Readings performed in 384 well format were modified so that cells were assayed in suspension. Cells were grown to 70% confluence in T-75 flasks, trypsinized and pelleted (300 RCF×5 minutes). Media was removed and cells were resuspended in 25 mL assay buffer supplemented with IBMX (200 μM). A 96 channel semi-automated pipet (Eppendorf epMotion 96) delivered 55 μL of cell suspension per well (5000 cells/well) into solid white 384 plates (Corning 3574).
# Sm.5HTR [2] = target: Sm.5HTR (Schistosoma mansoni, UniProt G4V5G4); type: cell-based; conditions: FIG. 10A
# Sm.5HTR (Schistosoma mansoni, UniProt G4V5G4), sequence (G4V5G4 entry or part of it): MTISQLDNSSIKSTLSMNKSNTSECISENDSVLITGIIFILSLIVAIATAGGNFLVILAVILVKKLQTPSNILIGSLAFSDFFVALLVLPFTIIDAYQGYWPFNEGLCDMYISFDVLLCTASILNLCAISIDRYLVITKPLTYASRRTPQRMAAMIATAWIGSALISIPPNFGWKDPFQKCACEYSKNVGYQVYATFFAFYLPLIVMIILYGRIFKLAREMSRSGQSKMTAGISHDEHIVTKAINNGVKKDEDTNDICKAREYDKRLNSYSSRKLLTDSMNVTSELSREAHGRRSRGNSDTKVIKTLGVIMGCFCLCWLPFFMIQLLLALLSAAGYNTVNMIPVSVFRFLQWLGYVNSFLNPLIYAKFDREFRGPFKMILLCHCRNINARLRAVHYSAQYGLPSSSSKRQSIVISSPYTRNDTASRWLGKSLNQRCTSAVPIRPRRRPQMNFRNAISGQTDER
# Sm.5HTR (Schistosoma mansoni, UniProt A0A173FEI8), sequence (A0A173FEI8 entry or part of it): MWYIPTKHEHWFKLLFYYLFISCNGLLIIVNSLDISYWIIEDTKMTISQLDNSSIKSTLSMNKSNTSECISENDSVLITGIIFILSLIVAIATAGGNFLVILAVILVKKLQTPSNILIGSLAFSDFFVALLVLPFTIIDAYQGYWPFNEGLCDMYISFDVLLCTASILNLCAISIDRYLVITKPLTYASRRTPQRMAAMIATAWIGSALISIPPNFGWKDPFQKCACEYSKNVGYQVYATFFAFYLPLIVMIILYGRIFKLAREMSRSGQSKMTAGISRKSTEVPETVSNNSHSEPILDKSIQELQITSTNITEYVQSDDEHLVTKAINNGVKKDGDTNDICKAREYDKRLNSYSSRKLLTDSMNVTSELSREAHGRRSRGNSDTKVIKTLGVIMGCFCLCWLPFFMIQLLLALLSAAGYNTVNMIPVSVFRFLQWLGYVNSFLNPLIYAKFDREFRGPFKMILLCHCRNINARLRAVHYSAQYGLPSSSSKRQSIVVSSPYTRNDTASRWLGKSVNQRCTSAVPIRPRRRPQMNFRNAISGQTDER
compound,measurement,setting,value
CN1C[C@H](C(=O)N[C@]2(C)O[C@@]3(O)[C@@H]4CCCN4C(=O)[C@H](Cc4ccccc4)N3C2=O)C=C2c3cccc4[nH]cc(c34)C[C@H]21 [ergotamine],reduction in size of eggs,"adult schistosomes; FIGS. 19H&I, ergotamine 1 μM",43%
same,decrease of egg laying,"adult schistosomes; serotonin 100 μM, forskolin 100 μM, LSD 10 μM, nuciferine 10 μM, ergotamine 5 μM (FIG. 19F), eggs per worm pair/day over five days",54%
same,EC50,adult S. mansoni,10 ± 3 nM
same,EC50,Sm.5HTR [1],43 ± 13 nM
same,Emax,"Sm.5HTR [1]; HEK293, read-out: Sm.5HTR Emax",95 ± 5%
same,"agonist efficacy at Sm.5HTR, in words",Sm.5HTR [2],partial agonism
same,EC50,"Sm.5HTR [2]; read-out: EC50, agonist activity at Sm.5HTR",232 nM
